“Also recorded” adds a separate entry of the source. Where two headings read alike, the source gives them in different places.
Columns and labels:
[1] = tested on: WiDr cells; assay: Western blot analysis of cell damage and death markers; format: cell-based, human; conditions: WiDr cultures treated with 2a plus NAC
Description: Owing to the enhanced antiproliferative effects induced by test compound 2a when compared to CHC, western blot analysis of cell damage and death markers was performed. The master transcription factor p53 regulates the expression of numerous genes involved in cancer progression and is responsible for balancing proliferation and apoptosis. In this regard, we evaluated the effects of compound treatment on p53 expression. Literature reports indicate that MDA-MB-231 and WiDr cells express distinct homozygous mutant forms of p53 that promote an aggressive malignant phenotype with resistance to apoptosis[36],[37]. […] Further, PARP1 is involved in the DNA repair pathway through sensing DNA-strand breaks and recruiting repair enzymes. Importantly, PARP1 is a target of caspase cleavage under apoptotic conditions, and the appearance of the PARP1 cleavage product is a widely used indicator of cellular apoptosis. […] Additionally, DNA damage may be a downstream effect of apoptotic nuclease activity or an increase in reactive oxygen species (ROS) from damaged mitochondria; as illustrated in microscopy and seahorse experiments. Histone 2AX phosphorylation (γH2AX) resulting from DNA single- and double-strand breaks is a widely employed marker for DNA damage. In this regard, we investigated the effect of 2a on DNA damage marker γH2AX (phosphorylated Ser139, histone H2AX) with a phospho-specific antibody. […] Due to the potential of ROS leading to DNA damage and H2AX phosphorylation, we investigated the ability of antioxidant N-acetyl cysteine (NAC) to inhibit DNA damage of compound 2a as evidenced by H2AX phosphorylation in the highly oxidative cell line WiDr (Fig. 4A).
50,000 WiDr or MDA-MB-231 cells were seeded in 100 mm dishes and were incubated for 48 hours. Cells were then treated with test compounds for 24 hours, washed twice with 1X PBS, solubilized in 200 μL SDS boiling buffer (5% w/v SDS, 10% v/v glycerol, and 60 mM Tris pH 6.8), and sonicated. The resulting cell lysate was then assayed for protein using the Pierce BCA protocol. A volume of test sample containing 10 μg protein was loaded on SDS PAGE gel for electrophoresis according to manufacturer’s instructions. Proteins were transferred from the gel to nitrocellulose membrane according to the manufacturer’s instructions. Membranes were blocked for 1 hr at 35 °C using 10% (w/v) non-fat milk in PBST and were exposed to primary antibody. PARP1 (rabbit polyclonal IgG, Origene, TA321555), p53 (rabbit polyclonal IgG, Santa Cruz, sc50329), and γ-H2AX (Upstate 05-636, 1:2500) were detected and visualized using HRP chemiluminescence. For relative quantitation, β-actin (mouse monoclonal IgG C4, Millipore, MAB1501, 1:10,000) and GAPDH (mouse monoclonal IgG, Santa Cruz, sc47724, 1:100) were detected and measured as a control protein.

[2] = biological target: T1, MCT1 (Rattus norvegicus, UniProt P53987); assay: MCT1 inhibition assay via L-[14C]-lactate uptake in RBE4 cells; format: cell-based; conditions: for MCT1 inhibition properties: at the concentrations tested, RBE4 cells
T1 construct: using an L-[^14C]-lactate study on the MCT1 expressing RBE4 cell line; endogenous in cells; host or cells: RBE4 (rat brain endothelial 4) cells, a gift from F. Roux
T1 sequence (P53987 1-494): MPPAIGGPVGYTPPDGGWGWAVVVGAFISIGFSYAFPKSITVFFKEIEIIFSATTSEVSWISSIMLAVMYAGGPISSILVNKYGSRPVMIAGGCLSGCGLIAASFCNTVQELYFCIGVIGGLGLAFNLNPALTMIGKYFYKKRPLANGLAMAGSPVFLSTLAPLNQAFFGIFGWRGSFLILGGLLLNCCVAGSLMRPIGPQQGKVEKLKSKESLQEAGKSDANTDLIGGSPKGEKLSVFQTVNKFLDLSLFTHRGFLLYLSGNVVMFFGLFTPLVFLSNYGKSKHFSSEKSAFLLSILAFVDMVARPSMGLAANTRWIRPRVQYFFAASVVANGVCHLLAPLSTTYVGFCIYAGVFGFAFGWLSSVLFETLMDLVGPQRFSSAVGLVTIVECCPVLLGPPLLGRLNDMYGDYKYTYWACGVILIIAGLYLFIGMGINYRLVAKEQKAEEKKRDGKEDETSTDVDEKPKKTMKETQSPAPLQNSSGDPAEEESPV

[3] = tested on: MCF7, 4T1, WiDr, and MDA-MB-231 cell lines; assay: MTT cell proliferation inhibition, all cell lines tested; format: cell-based; conditions: for cell proliferation inhibition: concentrations up to 500 µM, solubility limit above (0.1% DMSO in growth media)
Description: (§1) Cell proliferation inhibition was evaluated using 3-(4,5-dimethylthiazol-2-yl)-2,5-diphenyl tetrazolium bromide (MTT) assay as reported previously[19].

[4] = tested on: MDA-MB-231 cell line; assay: MTT cell proliferation inhibition assay; conditions: Homo sapiens, MDA-MB-231, read-out: MTT IC50
Description: (§2) Human triple-negative breast cancer MDA-MB-231 cells (ATCC) were grown in DMEM supplemented with 10% FBS (Atlanta Biologicals) and penicillin-streptomycin (50U/ml, 50 µg/ml, Invitrogen). Human colorectal adenocarcinoma WiDr cells (ATCC) were cultured in MEM medium supplemented with 10% FBS and penicillin-streptomycin. […] Murine metastatic breast cancer 4T1 cells were grown in RPMI-1640 supplemented with 10% FBS and penicillin-streptomycin. Human estrogen receptor positive breast cancer MCF7 cells (Masonic Cancer Center, University of Minnesota) were grown in MEM supplemented with 6% FBS, EGF (0.01 µg/ml), NEAA, HDC (1 µg/ml), insulin (10 µg/ml), HEPES (12 mM) and sodium pyruvate (1 mM).
as §1

[5] = tested on: 4T1 cell line; assay: MTT cell proliferation inhibition assay; conditions: Mus musculus, 4T1, read-out: MTT IC50
Description: as §2, §1

[6] = tested on: MCF7 cell line; assay: MTT cell proliferation inhibition assay; conditions: Homo sapiens, MCF7, read-out: MTT IC50
Description: as §2, §1

[7] = tested on: WiDr cell line; assay: MTT cell proliferation inhibition assay; conditions: Homo sapiens, read-out: MTT IC50
Description: as §2, §1

[8] = L-[14C]-lactate uptake, MCT1 expressing RBE4 cell line, average ± SEM of three separate experiments, read-out: MCT1 IC50

| IC50 [4] [µM] | IC50 [5] [µM] | IC50 [6] [µM] | IC50 [2, 8] [µM] | Compound | effect on 2a-induced H2AX activation [1] | effect on 2a-induced PARP1 cleavage [1] | IC50 [2] [µM] | concentration at which MCT1 function is inhibited ([2]; lactate uptake assay, discussion statement) [µM] | IC50 ([3]; read-out: MTT IC50 values, span over all the cell lines tested) [µM] | IC50 [7] [µM] | MCT1 inhibition properties [2] | cell proliferation inhibition [3] |
| --- | --- | --- | --- | --- | --- | --- | --- | --- | --- | --- | --- | --- |
|  |  |  |  | CC(=O)N[C@@H](CS)C(=O)O [NAC, N-acetyl cysteine, reference compound] | significantly reduced | did not reverse PARP1 cleavage |  |  |  |  |  |  |
| > 500 | > 500 | > 500 | > 5 | N#C/C(=C\c1ccc(OCCBr)cc1)C(=O)O [2d] |  |  |  |  |  | > 500 | did not exhibit MCT1 inhibition properties | did not show significant cell proliferation inhibition; also recorded: did not exhibit any cell proliferation inhibition properties |
| > 500 | > 500 | > 500 | > 5 | N#C/C(=C\c1ccc(OCCO)cc1)C(=O)O [2c] |  |  |  |  |  | > 500 | did not exhibit MCT1 inhibition properties | did not show significant cell proliferation inhibition; also recorded: did not exhibit any cell proliferation inhibition properties |

| Compound | IC50 [4] [µM] | IC50 [5] [µM] | IC50 [6] [µM] | IC50 [2, 8] [µM] | effect on 2a-induced H2AX activation [1] | effect on 2a-induced PARP1 cleavage [1] | IC50 [2] [µM] | concentration at which MCT1 function is inhibited ([2]; lactate uptake assay, discussion statement) [µM] | IC50 ([3]; read-out: MTT IC50 values, span over all the cell lines tested) [µM] | IC50 [7] [µM] | MCT1 inhibition properties [2] | cell proliferation inhibition [3] |
| --- | --- | --- | --- | --- | --- | --- | --- | --- | --- | --- | --- | --- |
| N#CC(=Cc1ccc(O)cc1)C(=O)O [CHC 1, α-cyano-4-hydroxycinnamic acid, reference compound] | 5300 ± 130 | 3600 ± 300 | 4000 ± 130 |  |  |  | > 150 | ≥ 150 | 1100 to 5300 | 1100 ± 96 |  |  |

Reference: PMC6892925, “Development of Novel Silyl Cyanocinnamic Acid Derivatives as Metabolic Plasticity Inhibitors for Cancer Treatment” (Scientific Reports, 2019)
